According to ChEMBL document CHEMBL1201862, “PubChem BioAssay data set” (2004):
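Five concentrations, 48 hours, 96-well plates. Abbreviation: GI50, concentration required for 50% inhibition of growth.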 Calls of active or inactive are those of the source. Cut-off read from the data, not from the text of the source: active = GI50 up to about 1.1 µM and inactive = higher.

How the values were obtained:
Assay in all cases: NCI anticancer screen, dose series, 48 h
SF-268 = test system: SF-268
IGROV-1 = test system: IGROV-1
M14 = test system: M14
SW-620 = test system: SW-620
RXF 631 = test system: RXF 631
786-0 = test system: 786-0
MOLT-4 = test system: MOLT-4
LXFL 529 = test system: LXFL 529
SK-OV-3 = test system: SK-OV-3
DMS-273 = test system: DMS-273
SN12C = test system: SN12C
NCI-H522 = test system: NCI-H522
HCT-116 = test system: HCT-116
U-251 = test system: U-251
SNB-75 = test system: SNB-75
HCT-15 = test system: HCT-15
EKVX = test system: EKVX
SNB-78 = test system: SNB-78
HOP-18 = test system: HOP-18
DLD-1 = test system: DLD-1
M19-MEL = test system: M19-MEL
COLO 205 = test system: COLO 205
UO-31 = test system: UO-31
UACC-257 = test system: UACC-257
A549 = test system: A549
HOP-62 = test system: HOP-62
KM12 = test system: KM12
SR = test system: SR
ACHN = test system: ACHN
SF-539 = test system: SF-539
NCI-H460 = test system: NCI-H460
SK-MEL-2 = test system: SK-MEL-2
OVCAR-4 = test system: OVCAR-4
SK-MEL-28 = test system: SK-MEL-28
HL-60 = test system: HL-60
OVCAR-8 = test system: OVCAR-8
SK-MEL-5 = test system: SK-MEL-5
HCC 2998 = test system: HCC 2998
KM-20L2 = test system: KM-20L2
UACC-62 = test system: UACC-62
A498 = test system: A498
TK-10 = test system: TK-10
NCI-H226 = test system: NCI-H226
RPMI-8226 = test system: RPMI-8226
RXF 393 = test system: RXF 393
SNB-19 = test system: SNB-19
CAKI-1 = test system: CAKI-1
Malme-3M = test system: Malme-3M
OVCAR-3 = test system: OVCAR-3
K562 = test system: K562
OVCAR-5 = test system: OVCAR-5
CCRF-CEM = test system: CCRF-CEM
XF498 = test system: XF498
SF-295 = test system: SF-295
DMS-114 = test system: DMS-114
NCI-H23 = test system: NCI-H23
HT-29 = test system: HT-29
LOX IMVI = test system: LOX IMVI
HOP-92 = test system: HOP-92

Nc1ncn(C2C=C(CO)C(O)C2O)c(=O)n1 (centres undefined)
GI50 (SF-268): 53 µM (inactive)
GI50 (IGROV-1): 84.5 µM (inactive)
GI50 (M14): > 100 µM (inactive)
GI50 (SW-620): 57.5 µM (inactive)
GI50 (RXF 631): 47.6 µM (inactive)
GI50 (786-0): 63.1 µM (inactive)
GI50 (MOLT-4): 59.4 µM (inactive)
GI50 (LXFL 529): > 100 µM (inactive)
GI50 (SK-OV-3): > 100 µM (inactive)
GI50 (DMS-273): > 100 µM (inactive)
GI50 (SN12C): 32.4 µM (inactive)
GI50 (NCI-H522): 37.2 µM (inactive)
GI50 (HCT-116): 40 µM (inactive)
GI50 (U-251): > 100 µM (inactive)
GI50 (SNB-75): > 100 µM (inactive)
GI50 (HCT-15): 54.2 µM
GI50 (EKVX): > 100 µM (inactive)
GI50 (SNB-78): > 100 µM (inactive)
GI50 (HOP-18): > 100 µM (inactive)
GI50 (DLD-1): 63.5 µM (inactive)
GI50 (M19-MEL): > 100 µM (inactive)
GI50 (COLO 205): 29.3 µM (inactive)
GI50 (UO-31): 92.7 µM (inactive)
GI50 (UACC-257): > 100 µM (inactive)
GI50 (A549): 52.4 µM (inactive)
GI50 (HOP-62): 35.1 µM (inactive)
GI50 (KM12): > 100 µM (inactive)
GI50 (SR): 26.7 µM (inactive)
GI50 (ACHN): 46.5 µM (inactive)
GI50 (SF-539): 63.5 µM (inactive)
GI50 (NCI-H460): 35 µM (inactive)
GI50 (SK-MEL-2): 94.4 µM (inactive)
GI50 (OVCAR-4): 85.9 µM (inactive)
GI50 (SK-MEL-28): > 100 µM (inactive)
GI50 (HL-60): 31.6 µM (inactive)
GI50 (OVCAR-8): 45.5 µM (inactive)
GI50 (SK-MEL-5): > 100 µM (inactive)
GI50 (HCC 2998): 89.7 µM (inactive)
GI50 (KM-20L2): 66.1 µM (inactive)
GI50 (UACC-62): > 100 µM (inactive)
GI50 (A498): > 100 µM (inactive)
GI50 (TK-10): > 100 µM (inactive)
GI50 (NCI-H226): > 100 µM (inactive)
GI50 (RPMI-8226): 37 µM (inactive)
GI50 (RXF 393): > 100 µM (inactive)
GI50 (SNB-19): > 100 µM (inactive)
GI50 (CAKI-1): 40.7 µM (inactive)
GI50 (Malme-3M): > 100 µM (inactive)
GI50 (OVCAR-3): > 100 µM (inactive)
GI50 (K562): 41.6 µM (inactive)

CC(=O)Nc1ccc(/C=C/C(=O)c2sc(-c3nc(C)c(C(=O)/C=C/c4ccc(NC(C)=O)cc4)s3)nc2C)cc1
GI50 (SF-268): > 10 µM (inactive)
GI50 (IGROV-1): > 100 µM (inactive)
GI50 (M14): > 100 µM (inactive)
GI50 (SW-620): > 100 µM (inactive)
GI50 (RXF 631): > 100 µM (inactive)
GI50 (786-0): > 100 µM (inactive)
GI50 (MOLT-4): > 100 µM (inactive)
GI50 (LXFL 529): > 100 µM (inactive)
GI50 (SK-OV-3): > 100 µM (inactive)
GI50 (DMS-273): > 100 µM (inactive)
GI50 (OVCAR-5): > 100 µM (inactive)
GI50 (SN12C): > 100 µM (inactive)
GI50 (NCI-H522): > 100 µM (inactive)
GI50 (HCT-116): > 100 µM (inactive)
GI50 (U-251): > 100 µM (inactive)
GI50 (HCT-15): > 100 µM
GI50 (CCRF-CEM): > 100 µM (inactive)
GI50 (EKVX): > 100 µM (inactive)
GI50 (SNB-78): > 100 µM (inactive)
GI50 (DLD-1): > 100 µM (inactive)
GI50 (M19-MEL): > 100 µM (inactive)
GI50 (COLO 205): > 100 µM (inactive)
GI50 (UO-31): 97.5 µM (inactive)
GI50 (UACC-257): > 100 µM (inactive)
GI50 (A549): > 100 µM (inactive)
GI50 (HOP-62): > 100 µM (inactive)
GI50 (XF498): > 100 µM (inactive)
GI50 (KM12): > 100 µM (inactive)
GI50 (SR): > 100 µM (inactive)
GI50 (SF-295): > 100 µM (inactive)
GI50 (DMS-114): > 100 µM (inactive)
GI50 (ACHN): > 100 µM (inactive)
GI50 (SF-539): > 100 µM (inactive)
GI50 (NCI-H460): > 100 µM (inactive)
GI50 (SK-MEL-2): > 100 µM (inactive)
GI50 (OVCAR-4): > 100 µM (inactive)
GI50 (SK-MEL-28): > 100 µM (inactive)
GI50 (HL-60): > 100 µM (inactive)
GI50 (OVCAR-8): > 100 µM (inactive)
GI50 (HCC 2998): > 100 µM (inactive)
GI50 (KM-20L2): > 100 µM (inactive)
GI50 (UACC-62): > 100 µM (inactive)
GI50 (TK-10): > 100 µM (inactive)
GI50 (NCI-H226): > 100 µM (inactive)
GI50 (NCI-H23): > 100 µM (inactive)
GI50 (RXF 393): > 100 µM (inactive)
GI50 (SNB-19): > 100 µM (inactive)
GI50 (CAKI-1): > 100 µM (inactive)
GI50 (Malme-3M): > 100 µM (inactive)
GI50 (OVCAR-3): > 100 µM (inactive)
GI50 (K562): > 100 µM (inactive)
GI50 (HT-29): > 100 µM (inactive)
GI50 (LOX IMVI): > 100 µM (inactive)

COc1ccc(SS(=O)(=O)c2ccc(OC)cc2)cc1
GI50 (SF-268): 17.4 µM (inactive)
GI50 (IGROV-1): 10 µM (inactive)
GI50 (M14): 20 µM (inactive)
GI50 (SW-620): 3.69 µM (inactive)
GI50 (RXF 631): 39 µM (inactive)
GI50 (786-0): 17.2 µM (inactive)
GI50 (MOLT-4): 13.2 µM (inactive)
GI50 (LXFL 529): 17.7 µM (inactive)
GI50 (SK-OV-3): 34.2 µM (inactive)
GI50 (OVCAR-5): 30 µM (inactive)
GI50 (SN12C): 20.3 µM (inactive)
GI50 (NCI-H522): 15.3 µM (inactive)
GI50 (HCT-116): 16.1 µM (inactive)
GI50 (U-251): 14.2 µM (inactive)
GI50 (SNB-75): 23.2 µM (inactive)
GI50 (HCT-15): 36.7 µM
GI50 (CCRF-CEM): 2.64 µM (inactive)
GI50 (EKVX): 21.1 µM (inactive)
GI50 (SNB-78): 53.7 µM (inactive)
GI50 (HOP-18): 22.5 µM (inactive)
GI50 (DLD-1): 21.9 µM (inactive)
GI50 (M19-MEL): 19.5 µM (inactive)
GI50 (COLO 205): 17.9 µM (inactive)
GI50 (UO-31): 13.9 µM (inactive)
GI50 (UACC-257): 22.9 µM (inactive)
GI50 (A549): 24.4 µM (inactive)
GI50 (HOP-62): 23.8 µM (inactive)
GI50 (KM12): 16.5 µM (inactive)
GI50 (SR): 23.1 µM (inactive)
GI50 (SF-295): 19.5 µM (inactive)
GI50 (DMS-114): 16 µM (inactive)
GI50 (ACHN): 18.4 µM (inactive)
GI50 (SF-539): 18.8 µM (inactive)
GI50 (NCI-H460): 38.6 µM (inactive)
GI50 (SK-MEL-2): 36 µM (inactive)
GI50 (SK-MEL-28): 19.6 µM (inactive)
GI50 (HL-60): 2.24 µM (inactive)
GI50 (OVCAR-8): 16.6 µM (inactive)
GI50 (SK-MEL-5): 15.2 µM (inactive)
GI50 (HCC 2998): 13.6 µM (inactive)
GI50 (KM-20L2): 21.3 µM (inactive)
GI50 (UACC-62): 20 µM (inactive)
GI50 (HOP-92): 35.9 µM (inactive)
GI50 (A498): 17.2 µM (inactive)
GI50 (TK-10): 23.3 µM (inactive)
GI50 (NCI-H226): 23.6 µM (inactive)
GI50 (NCI-H23): 26.1 µM (inactive)
GI50 (RPMI-8226): 27.5 µM (inactive)
GI50 (RXF 393): 18.1 µM (inactive)
GI50 (SNB-19): 24.4 µM (inactive)
GI50 (CAKI-1): 22.5 µM (inactive)
GI50 (Malme-3M): 33.3 µM (inactive)
GI50 (OVCAR-3): 18.2 µM (inactive)
GI50 (K562): 21.7 µM (inactive)
GI50 (HT-29): 32.1 µM (inactive)
GI50 (LOX IMVI): 17.5 µM (inactive)
